Measurements as given in patent publication US20210127673A1, “HERBICIDES” (SYNGENTA PARTICIPATIONS AG, priority 2016, published 2021).

Experiments:
Format in all cases: in vivo
Settings in all cases: evaluated after 13 days
[1] = system: Triticum aestivium (TRZAW); test: Pre-emergence herbicidal activity, Triticum aestivium; set-up: key: 5=total damage to plant; 0=no damage to plant
In short: (§1)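 Pots of seeds were sprayed one day after sowing (pre-emergence) with compound in acetone/water (50:50) plus 0.5% Tween 20, then grown in a glasshouse at 24/16 °C day/night, 14 h light, 65% humidity. Damage scored 0–5 (5 = total damage) after 13 days.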

Avena fatua (AVEFA) [2] = test: Pre-emergence herbicidal activity, Avena fatua
In short: as §1

[3] = system: Alopecurus myosuroides (ALOMY); test: Pre-emergence herbicidal activity, Alopecurus myosuroides; set-up: key: 5=total damage to plant; 0=no damage to plant
In short: as §1

[4] = system: Echinochloa crus-galli (ECHCG); test: Pre-emergence herbicidal activity, Echinochloa crus-galli; set-up: key: 5=total damage to plant; 0=no damage to plant
In short: as §1

Lolium perenne (LOLPE) [5] = test: Pre-emergence herbicidal activity, Lolium perenne; set-up: key: 5=total damage to plant; 0=no damage to plant
In short: as §1

Setaria faberi (SETFA) [6] = test: Pre-emergence herbicidal activity, Setaria faberi; set-up: key: 5=total damage to plant; 0=no damage to plant
In short: as §1

[7] = system: Triticum aestivium (TRZAW); test: Post-emergence herbicidal activity, Triticum aestivium; set-up: key: 5=total damage to plant; 0=no damage to plant
In short: (§2)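 Pot-grown plants in standard soil were sprayed 8 days after sowing with active ingredient in acetone/water (50:50) containing 0.5% Tween 20. Glasshouse at 24/16 °C day/night, 14 h light, 65% humidity, watered twice daily. Damage scored after 13 days on 0 (none) to 5 (total) scale.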

Avena fatua (AVEFA) [8] = test: Post-emergence herbicidal activity, Avena fatua
In short: as §2

[9] = system: Alopecurus myosuroides (ALOMY); test: Post-emergence herbicidal activity, Alopecurus myosuroides; set-up: key: 5=total damage to plant; 0=no damage to plant
In short: as §2

[10] = system: Echinochloa crus-galli (ECHCG); test: Post-emergence herbicidal activity, Echinochloa crus-galli; set-up: key: 5=total damage to plant; 0=no damage to plant
In short: as §2

Lolium perenne (LOLPE) [11] = test: Post-emergence herbicidal activity, Lolium perenne; set-up: key: 5=total damage to plant; 0=no damage to plant
In short: as §2

Setaria faberi (SETFA) [12] = test: Post-emergence herbicidal activity, Setaria faberi; set-up: key: 5=total damage to plant; 0=no damage to plant
In short: as §2

SMILES	Control of TRAZW after pre-emergence application (score 0-5) ([1]; 1000 g/ha)	Control of AVEFA after pre-emergence application (score 0-5) (Avena fatua (AVEFA) [2]; 1000 g/ha)	Control of ALOMY after pre-emergence application (score 0-5) ([3]; 1000 g/ha)	Control of ECHCG after pre-emergence application (score 0-5) ([4]; 1000 g/ha)	Control of LOLPE after pre-emergence application (score 0-5) (Lolium perenne (LOLPE) [5]; 1000 g/ha)	Control of SETFA after pre-emergence application (score 0-5) (Setaria faberi (SETFA) [6]; 1000 g/ha)	Control of TRAZW after post-emergence application (score 0-5) ([7]; 1000 g/ha)	Control of AVEFA after post-emergence application (score 0-5) (Avena fatua (AVEFA) [8]; 1000 g/ha)	Control of ALOMY after post-emergence application (score 0-5) ([9]; 1000 g/ha)	Control of ECHCG after post-emergence application (score 0-5) ([10]; 1000 g/ha)	Control of LOLPE after post-emergence application (score 0-5) (Lolium perenne (LOLPE) [11]; 1000 g/ha)	Control of SETFA after post-emergence application (score 0-5) (Setaria faberi (SETFA) [12]; 1000 g/ha)	Control of TRAZW after pre-emergence application (score 0-5) ([1]; 250 g/ha)	Control of AVEFA after pre-emergence application (score 0-5) (Avena fatua (AVEFA) [2]; 250 g/ha)	Control of ALOMY after pre-emergence application (score 0-5) ([3]; 250 g/ha)	Control of ECHCG after pre-emergence application (score 0-5) ([4]; 250 g/ha)	Control of LOLPE after pre-emergence application (score 0-5) (Lolium perenne (LOLPE) [5]; 250 g/ha)	Control of SETFA after pre-emergence application (score 0-5) (Setaria faberi (SETFA) [6]; 250 g/ha)	Control of TRAZW after post-emergence application (score 0-5) ([7]; 250 g/ha)	Control of AVEFA after post-emergence application (score 0-5) (Avena fatua (AVEFA) [8]; 250 g/ha)	further results
O=C(Nc1ccc(-c2cncc(F)c2)nc1C(F)(F)F)OCc1ccc(Cl)cc1 [Compound B105]	0	1	0	2	1	5	0	3	0	4	1	5									
CCCCNC(=O)Nc1ccc(-c2cncc(F)c2)nc1C(F)(F)F [Compound B106]													0	1	0	1	1	5	0	3	Control of ALOMY after post-emergence application (score 0-5) ([9]; 250 g/ha): 0; Control of ECHCG after post-emergence application (score 0-5) ([10]; 250 g/ha): 3; Control of LOLPE after post-emergence application (score 0-5) (Lolium perenne (LOLPE) [11]; 250 g/ha): 1; Control of SETFA after post-emergence application (score 0-5) (Setaria faberi (SETFA) [12]; 250 g/ha): 5
CC(C)(C)CNC(=O)Nc1ccc(-c2cncc(F)c2)nc1C(F)(F)F [Compound B107]													1	1	1	3	3	4	0	3	Control of ALOMY after post-emergence application (score 0-5) ([9]; 250 g/ha): 0; Control of ECHCG after post-emergence application (score 0-5) ([10]; 250 g/ha): 3; Control of LOLPE after post-emergence application (score 0-5) (Lolium perenne (LOLPE) [11]; 250 g/ha): 1; Control of SETFA after post-emergence application (score 0-5) (Setaria faberi (SETFA) [12]; 250 g/ha): 5
O=C(Nc1ccc(-c2cncc(F)c2)nc1C(F)(F)F)OC1CCCCC1 [Compound B108]	0	2	0	3	2	5	0	3	0	0	1	5									
COc1nc(-c2cncc(F)c2)ccc1N(C(=O)OC(C)(C)C)C(=O)OC(C)(C)C [Compound B109]	0	1	0	0	0	3	0	1	0	1	0	1									
